Measurements: ChEMBL document CHEMBL1201862, “PubChem BioAssay data set” (2004)
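Method: 48-hour compound exposure of cells in 96-well plates, five concentrations, linear interpolation of endpoints. GI50 = concentration required for 50% inhibition of growth.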 Activity calls are given as the source filed them. Rule as the data show it: active = GI50 up to about 1.1 µM and inactive = higher.

What was measured:
Assay in all cases: NCI-60 cell line screen, 48 h
HCT-15 = system: HCT-15
COLO 205 = system: COLO 205
HOP-62 = system: HOP-62
SF-295 = system: SF-295
HL-60 = system: HL-60
HCC 2998 = system: HCC 2998
SNB-19 = system: SNB-19
MCF7 = system: MCF7
UACC-257 = system: UACC-257
SN12C = system: SN12C
NCI/ADR-RES = system: NCI/ADR-RES
TK-10 = system: TK-10
OVCAR-8 = system: OVCAR-8
T47D = system: T47D
SK-MEL-28 = system: SK-MEL-28
SF-539 = system: SF-539
OVCAR-4 = system: OVCAR-4
SW-620 = system: SW-620
NCI-H460 = system: NCI-H460
LOX IMVI = system: LOX IMVI

SMILES | GI50 (HCT-15) [µM] | GI50 (COLO 205) | GI50 (HOP-62) | GI50 (SF-295) | GI50 (HL-60) | GI50 (HCC 2998) | GI50 (SNB-19) | GI50 (MCF7) | GI50 (UACC-257) | GI50 (SN12C) | GI50 (NCI/ADR-RES) | GI50 (TK-10) | GI50 (OVCAR-8) | GI50 (T47D) | GI50 (SK-MEL-28) | GI50 (SF-539) | GI50 (OVCAR-4) | GI50 (SW-620) | GI50 (NCI-H460) | GI50 (LOX IMVI)
O=C(c1ccc(Cl)cc1)N(C(=S)OC12CC3CC(CC(C3)C1)C2)c1ccccc1 | 34.6 | 16.8 µM (inactive) | 45.5 µM (inactive) | 36.8 µM (inactive) | 17 µM (inactive) | 31.6 µM (inactive) | 29.6 µM (inactive) | 33.3 µM (inactive) | 46.6 µM (inactive) | 45.2 µM (inactive) | 36.5 µM (inactive) | 37.1 µM (inactive) | 39.2 µM (inactive) | 54.5 µM (inactive) | > 100 µM (inactive) | 30.7 µM (inactive) | 39.5 µM (inactive) | 34.4 µM (inactive) | 30 µM (inactive) | 
CC(C)c1nc2cc(C(F)(F)F)ccc2[nH]c1=O | > 100 | > 100 µM (inactive) | 79.8 µM (inactive) | > 100 µM (inactive) | 54 µM (inactive) | > 100 µM (inactive) | > 100 µM (inactive) | 85.9 µM (inactive) | > 100 µM (inactive) | > 100 µM (inactive) | 57.8 µM (inactive) | 70.6 µM (inactive) | > 100 µM (inactive) | > 100 µM (inactive) | > 100 µM (inactive) | > 100 µM (inactive) | 94.8 µM (inactive) | > 100 µM (inactive) | > 100 µM (inactive) | 
COC(=O)C1OC(O[C@H]2CC[C@]3(C)[C@H]4CC=C5[C@@H]6CC(C)(C)CC[C@]6(C(=O)OC)CC[C@@]5(C)[C@]4(C)CC[C@H]3C2(C)C)C(O)C(O)C1O (stereo partly drawn) | 13.9 | 16.1 µM (inactive) | 18 µM (inactive) | 15.1 µM (inactive) | 18.1 µM (inactive) | 7.76 µM (inactive) | 15.2 µM (inactive) | 12.5 µM (inactive) | 19.5 µM (inactive) | 13.1 µM (inactive) | 15.8 µM (inactive) |  | 13.6 µM (inactive) | 19.7 µM (inactive) | 18.5 µM (inactive) |  | 14.4 µM (inactive) | 17 µM (inactive) | 8.38 µM (inactive) | 6.67 µM (inactive)
N#CCCN(CCC#N)c1ccc(/C=C2\N=C(c3ccccc3)N(c3ccccn3)C2=O)cc1 | > 100 | > 100 µM (inactive) | > 100 µM (inactive) | > 100 µM (inactive) | > 100 µM (inactive) |  | > 100 µM (inactive) | > 100 µM (inactive) | > 100 µM (inactive) | > 100 µM (inactive) | > 100 µM (inactive) | > 100 µM (inactive) | > 100 µM (inactive) | > 100 µM (inactive) | > 100 µM (inactive) | > 100 µM (inactive) | > 100 µM (inactive) | > 100 µM (inactive) | > 100 µM (inactive) | > 100 µM (inactive)
CC(C)C(N)(C(=O)O)c1ccccc1 (stereo not drawn) | > 100 | > 100 µM (inactive) | > 100 µM (inactive) | > 100 µM (inactive) | > 100 µM (inactive) | > 100 µM (inactive) | > 100 µM (inactive) | > 100 µM (inactive) | > 100 µM (inactive) | > 100 µM (inactive) | > 100 µM (inactive) | > 100 µM (inactive) | > 100 µM (inactive) | > 100 µM (inactive) | > 100 µM (inactive) |  | > 100 µM (inactive) | > 100 µM (inactive) | > 100 µM (inactive) | > 100 µM (inactive)
COc1cc2c(cc1OCCCCOc1cc3c(cc1OC)C(=O)N1CCC[C@H]1C(=O)N3)N=C[C@@H]1CCCN1C2=O | 12.2 | 2.55 µM (inactive) | 10.9 µM (inactive) | 12.5 µM (inactive) | 9.18 µM (inactive) | 11.7 µM (inactive) | 8.18 µM (inactive) | 2.72 µM (inactive) | 14.9 µM (inactive) | 9.75 µM (inactive) | 13.4 µM (inactive) | 12.9 µM (inactive) | 14.7 µM (inactive) | 5.52 µM (inactive) | 14.3 µM (inactive) |  | 13.1 µM (inactive) | 3.29 µM (inactive) | 15.8 µM (inactive) | 1.99 µM (inactive)
